The values that follow come from article PMC8453635, “Piperidine Azasugars Bearing Lipophilic Chains: Stereoselective Synthesis and Biological Activity as Inhibitors of Glucocerebrosidase (GCase)” (The Journal of Organic Chemistry, 2021).

Entries after “also recorded” stand apart in the source; their conditions may differ.

This series concerns the target T1, GCase in fibroblasts bearing the N370S/RecNcil mutation (Homo sapiens, UniProt P04062, A495P/L483P/N409S).
T1 construct: fibroblasts derived from Gaucher patients bearing the N370S/RecNcil and L444P/L444P mutations; host or cells: fibroblasts from Gaucher disease patients, N370S/RecNcil
T1 sequence (P04062 40-536 N409S): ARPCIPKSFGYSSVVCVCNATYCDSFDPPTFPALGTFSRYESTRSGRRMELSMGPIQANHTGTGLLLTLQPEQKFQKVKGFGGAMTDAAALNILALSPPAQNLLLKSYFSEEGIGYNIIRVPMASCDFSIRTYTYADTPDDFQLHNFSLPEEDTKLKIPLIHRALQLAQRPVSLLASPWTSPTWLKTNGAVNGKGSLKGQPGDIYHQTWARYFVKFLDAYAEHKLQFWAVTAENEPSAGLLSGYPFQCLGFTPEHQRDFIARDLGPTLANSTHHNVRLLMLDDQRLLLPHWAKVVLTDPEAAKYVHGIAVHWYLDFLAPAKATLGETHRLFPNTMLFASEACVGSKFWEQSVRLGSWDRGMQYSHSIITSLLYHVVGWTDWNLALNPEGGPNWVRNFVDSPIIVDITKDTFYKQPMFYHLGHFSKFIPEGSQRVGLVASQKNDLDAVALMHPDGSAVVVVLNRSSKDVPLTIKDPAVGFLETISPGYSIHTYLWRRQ
Briefly: Pharmacological chaperoning activity in N370S/RecNcil Gaucher fibroblasts. The class given is cell-based. To be noted: for cell viability: 50 µM and 100 µM, 4 days; for GCase enzymatic activity rescue: 4 days incubation. The method, then:
The ability of compounds 14 and 15 to enhance the activity of GCase after incubation (4 days) with fibroblasts bearing the selected mutations was evaluated. The experiments were performed using fibroblasts derived from Gaucher patients bearing the N370S/RecNcil and L444P/L444P mutations (see the Supporting Information section).
Fibroblasts with the N370S/RecNcil (or L444P/L444P) mutation from Gaucher disease patients were obtained from the “Cell line and DNA Biobank from patients affected by Genetic Diseases” (Gaslini Hospital, Genova, Italy). Fibroblast cells (15.0 × 10^4) were seeded in T25 flasks with DMEM supplemented with fetal bovine serum (10%), penicillin/streptomycin (1%), and glutamine (1%) and incubated at 37 °C with 5% CO2 for 24 h. The medium was removed, and fresh medium containing the compounds (14, 15 and 33·HCl) was added to the cells and incubated for 4 days. The medium was removed, and the cells were washed with PBS and detached with trypsin to obtain cell pellets, which were washed four times with PBS, frozen, and lysed by sonication in water. Enzyme activity was measured as reported above. Reported data are mean S.D. (n = 2).
Pharmacological chaperoning activity
Figure S50. Fibroblasts derived from GD patients bearing N370S/RecNcil mutations were incubated without (control, ctrl) or with 7 different concentrations (10 nM, 50 nM, 100 nM, 1 μM, 10 μM, 50 μM, 100 μM) of compounds 14 and 15. After 4 days, the flasks containing cells incubated with 50 µM and 100 µM […]
other concentrations, the GCase activity was determined in lysates from treated fibroblasts. Reported data are mean S.D. (n=2).
(also on this page, place not known: beta glucosidase activity (nmol/mg/h) beta glucosidase activity (nmol/mg/h)) […]
Figure S51. Fibroblasts derived from GD patients bearing N370S/RecNcil mutations were incubated without (control, ctrl) or with […] different concentrations (5 nM, 10 nM, 100 nM, 1 μM, 10 μM, 30 μM) of compound 33.HCl. After 4 days, the GCase activity was determined in lysates from treated fibroblasts. Reported […]
(also on this page, place not known: beta glucosidase activity (nmol/mg/h))

In the case of `CCCCCCCC[C@@H]1[C@@H](O)[C@H](O)[C@H](O)CN1CCCCCCCC` [compound 15, (2R,3R,4R,5R)-1,2-Dioctylpiperidine-3,4,5-triol], the cell viability result is listed as “low cell viability”. In addition, the “GCase enzymatic activity rescue” value (5 nM to 10 μM) is reported as “no enzymatic activity rescue; also recorded: no GCase activity enhancements”.

Turning to `CCCCCCCC[C@@H]1[C@@H](O)[C@H](O)[C@H](O)CN1C(CCCCCCC)CCCCCCC.Cl` [compound 33·HCl, (2R,3R,4R,5R)-2-Octyl-1-(pentadecan-8-yl)-piperidine-3,4,5-triol Hydrochloride], the “GCase enzymatic activity rescue” value (5 nM to 30 μM) was “no enzymatic activity rescue; also recorded: no GCase activity enhancements”.

With `CCCCCCCC[C@H]1[C@@H](O)[C@H](O)[C@H](O)CN1CCCCCCCC` [compound 14, (2S,3R,4R,5R)-1,2-Dioctylpiperidine-3,4,5-triol], the cell viability entry is reported as “low cell viability”. Also, the “GCase enzymatic activity rescue” value (5 nM to 10 μM) is reported as “no enzymatic activity rescue; also recorded: no GCase activity enhancements”.
